According to US10231472B2, “Zilpaterol animal premix formulation” (Intervet Inc., priority 2015, dated 2019):
Where a name gives a salt, the structure may show the parent alone.

Columns and labels:
[1] = Stability of zilpaterol in liquid vehicles at high temperature; format: physicochemical
Method: (§1) However since solubility of the drug was poor in propylene glycol, a significant additional amount of propylene glycol was needed (27.6%) to fully solubilize the drug. Since propylene glycol is viscous/sticky, this larger amount of propylene glycol could not be added to the corn cob carrier without causing the product to be sticky which results in poor flow properties. To address this problem, a premix containing only 6% propylene glycol and 2% water was prepared by heating the liquid mixture of zilpaterol HCl to a high temperature and creating a supersaturation of zilpaterol HCl in the propylene glycol/water vehicle. This was successful in fully solubilizing the zilpaterol HCl without needing to add additional liquids. […] When this hot supersaturated solution is added to a dry carrier, it is easily absorbed and mixed and the combination becomes dry and free flowing. Excellent uniformity is obtained, and product safety is improved since free solid drug particles are avoided.
Propylene glycol is the preferred solvent.

[2] = Solubility of zilpaterol HCl in solvents; format: physicochemical
Method: For some drugs that have a good solubility profile formulations can be prepared by dissolving the drug into a solvent and then mixing the resulting solution with additional excipient/carriers to prepare a suitable dosage form (premix, tablets, etc.). This approach works best when the drug concentration is very low and the drug has good solubility. If an excess amount of liquid is added during manufacture a wet mass can be formed that is difficult to process and needs to be dried to remove excess solvent. Drying adds additional cost and complexity to the manufacturing process.
as §1

SMILES: CC(C)NC1CCn2c(=O)[nH]c3cccc(c32)C1O (centres unmarked) [Zilpaterol HCl, 4,5,6,7-tetrahydro-7-hydroxy-6-(isopropylamino) imidazo[4,5,1-jk]-[1]benzazepin-2(1H)-one]
- stability in propylene glycol alone ([1]; after 45 days at 60° C., propylene glycol alone): 95.2%
- stability in solution, temperature ([1]; supersaturated solution in propylene glycol/water vehicle): ≤ 90 °C
- solubility of the drug in premix liquid ([2]; premix with 0.8% zilpaterol HCl, 6% propylene glycol and 2% water, without heating): not fully soluble
- solubility in propylene glycol ([2]; propylene glycol): 2.9%
- solubility ([2]; water): 130 mg/mL
